Measurements from patent US11873290B2, “Pyridazinone compounds and uses thereof” (Edgewise Therapeutics, Inc., priority 2018, dated 2024).
pIC50: −log10 of the molar value.

Biological target: skeletal myofibrils (myosin ATPase activity)
Assay: Skeletal Myofibril ATPase Assay
Assay type: biochemical
Settings: PK-LDH coupled, absorbance at 340 nm
Procedure, shortened: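 Skeletal myofibril ATPase measured by PK-LDH-coupled NADH depletion at 340 nm, read every 1.5–2 min for 1 h; pCa buffer with PIPES/CaCl2/EGTA, pH 7.0. Rate taken as max–min absorbance, normalised to 1% DMSO vehicle (100%) and no change (0%); IC50 from four-parameter fit, bottom ≥0.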

pIC50 | SMILES
4.00 to 5.00 | Cc1ccc(-c2noc(Cn3nc(-c4ccc(Cl)cc4)ccc3=O)n2)cc1 [Compound 313, 6-(4-chlorophenyl)-2-((3-(p-tolyl)-1,2,4-oxadiazol-5-yl)methyl)pyridazin-3(2H)-one]
< 4.00 | Cc1ccc(-c2ccc(=O)n(Cc3nc(-c4cccc(Cl)c4)no3)n2)cc1 [Compound 314, 2-((3-(3-chlorophenyl)-1,2,4-oxadiazol-5-yl)methyl)-6-(p-tolyl)pyridazin-3(2H)-one]
> 5.00 | COc1ccc(-c2ccc(=O)n(Cc3nc(-c4ccc(OC)cc4)no3)n2)cc1 [Compound 315, 6-(4-methoxyphenyl)-2-((3-(4-methoxyphenyl)-1,2,4-oxadiazol-5-yl)methyl)pyridazin-3(2H)-one]
< 4.00 | Cc1nc(Cn2nc(-c3ccc(Cl)cc3)ccc2=O)no1 [Compound 350, 6-(4-chlorophenyl)-2-((5-methyl-1,2,4-oxadiazol-3-yl)methyl)pyridazin-3(2H)-one]
4.00 to 5.00 | Cc1ncc(-c2ccc(=O)n(Cc3cncc(F)c3)n2)cn1 [Compound 351]
> 5.00 | C/C=C\c1ncc(-c2ccc(=O)n(Cc3cncc(F)c3)n2)cn1 [Compound 352, (Z)-2-((5-fluoropyridin-3-yl)methyl)-6-(2-(prop-1-en-1-yl)pyrimidin-5-yl)pyridazin-3(2H)-one]

Further lines, the molecule ahead of its results:

SMILES | pIC50
COc1ccc(-c2ccc(=O)n(Cc3nc(-c4ccccc4)no3)n2)cc1 [Compound 309, 6-(4-methoxyphenyl)-2-((3-phenyl-1,2,4-oxadiazol-5-yl)methyl)pyridazin-3(2H)-one] | > 5.00
COc1ccc(-c2ccc(=O)n(Cc3nc(-c4ccc(OC)cc4)no3)n2)cc1 [Compound 310, 6-(4-methoxyphenyl)-2-((3-(4-methoxyphenyl)-1,2,4-oxadiazol-5-yl)methyl)pyridazin-3(2H)-one] | > 5.00
Cc1ccc(-c2ccc(=O)n(Cc3cc(=O)n4ccccc4n3)n2)cc1 [Compound 311, 2-((6-oxo-3-(p-tolyl)pyridazin-1(6H)-yl)methyl)-4H-pyrido[1,2-a]pyrimidin-4-one] | 4.00 to 5.00
Cc1ccc(-c2ccc(=O)n(Cc3nc(-c4ccccc4C)no3)n2)cc1 [Compound 312, 6-(p-tolyl)-2-((3-(o-tolyl)-1,2,4-oxadiaxol-5-yl)methyl)pyridazin-3(2H)-one] | > 5.00

System: zebrafish model of DMD
Assay: not given
Settings: embryos from zebrafish model of DMD; cited from earlier work

SMILES | Protection from pathological muscle derangement
Cc1ccc(S(=O)(=O)NCc2ccccc2)cc1 [BTS, N-benzyl-p-tolyl-sulfonamide] | protect muscles from pathological muscle derangement
